Patent publication US5573922A, “Immunological detection method for triazines” (Boehringer Mannheim GmbH, priority 1993, dated 1996)

How the values were obtained:
[1] = tested on: antiserum S 4612 (sheep antiserum against triazine); test: Competitive ELISA, sheep triazine antiserum with homologous POD conjugate atra(terbutyl-6ah)-OSu-POD; format: binding; conditions: 30 mU/ml; for lower detection limit (ng/l) / lower detection limit: concentration at which signal is 80% of maximum signal; for cross reaction (%): relative to terbutylazine (quotient of hapten concentrations at half maximum signal)
Procedure: (§1) Microtitre plates (Maxisorp F96,Nunc Co. Order No. 4-42404) are coated with antibodies against the Fc part of sheep IgG which have been obtained by immunosorptive purification of the IgG fraction from donkey antiserum. The donkey antibody is dissolved in the coating buffer at a concentration of 10 µg/ml protein and 100 μl of this solution is pipetted into each well of the microtitre plate. After incubating for 1 hour at room temperature while shaking, the solution is discarded and the plate is washed three times with washing solution.
(§2) Sheep antiserum against triazine is diluted 1:50,000 with incubation buffer. Each well of the microtitre plate is coated with 100 μl of the diluted solution. During the incubation period (1 hour, conditions as above) the IgG molecules from the sheep serum bind to the donkey antibodies bound to the wall. They are subsequently washed as above.
(§3) The wells of the microtitre plate which were precoated as previously described, are filled with these solutions (100 μl in each case), incubated for 1 hour and subsequently washed as described.
(§4) The free hapten molecules compete with the hapten-POD conjugate for the limited amount of hapten-specific antibodies on the wall of the wells. The less conjugate is bound the more free hapten is present in the solution and the better the hapten is recognized by the antibodies.
(§5) Every well is filled with 100 μl substrate solution and incubated while shaking until the colour development in the samples without hapten appears subjectively to be high enough. Then the absorbance in all wells is determined as a differential measurement at the wavelengths 405/492 nm.
(§6) In the graph of the measured signal as a function of the hapten concentration used, the "relative affinity", i.e. the hapten concentration whose measured signal is half the size of the maximum signal (at a hapten concentration of 0), is determined for each triazine compound. In this process a linear interpolation is made between selected measurement points on the curve. This gives the cross-reaction of the triazines in relation to terbutylazine as the quotient [formula]
(§7) The "lower limit of detection" is determined in an analogous manner for each triazine compound as the concentration at which the measured signal is 80% of the maximum signal.
In a second experiment the cross reaction and the lower limit of detection for each of the above-mentioned triazines is determined in an analogous manner using the homologous conjugate atra(terbutyl-6ah)-OSu-POD. In this case the POD concentration is 30 mU/ml. The highest hapten concentrations are 10,000 ng/l for terbutylazine and 100,000 ng/l for all triazines.
Eight further hapten concentrations are prepared by serial dilution of these solutions in a ratio of 1:2 and a blank value without triazine is determined in each case.

[2] = tested on: antiserum S 4612 (sheep antiserum against triazine); test: Competitive ELISA, sheep triazine antiserum with heterologous POD conjugate atra(deethyl-4-ED)-SATP-PODp(MH); format: binding; conditions: 50 mU/ml; for lower detection limit: concentration at which signal is 80% of maximum signal; for cross reaction (%): relative to terbutylazine (quotient of hapten concentrations at half maximum signal)
Procedure: 10 sheep are immunized with triazine immunogen according to example 1 in Freund's adjuvant. The dose is […] per animal. The immunizations are repeated over six months or longer, each at intervals of 4 weeks. Antiserum samples are taken from all animals once per month and examined for the presence of triazine antibodies. For this purpose a series of terbutylazine standards are measured in a competitive ELISA using the heterologous POD conjugate atra(deethyl-4-ED)-SATP-POD(MH) according to example 3. The procedure for this measurement is described in detail in example 5.
as §1, §2
A series of solutions is prepared which contain terbutylazine at concentrations of 1000/500/250/125/62.5/31/16/8/4/0 ng/l as well as the conjugate atra(deethyl-4-ED)-SATP-PODp(MH) according to the invention at a standard concentration of 50 mU/ml in the incubation buffer.
Dilution series of other triazines are prepared in a similar manner with maximum concentrations of […] (atrazine, cyanazine and desethylterbutylazine), 10,000 ng/l (propazine, simazine, desethylatrazine) and 100,000 ng/l (desisopropylatrazine) and dilution steps of 1:2 which also contain the said hapten-POD conjugate.
as §3, §4, §5, §6, §7

## CCNc1nc(Cl)nc(NC(C)C)n1 [atrazine]
[1]
  lower detection limit (ng/l): 1,600 ng/l
  cross reaction (%): 4%
[2]
  lower detection limit: 17 ng/L
  cross reaction (%): 73%

## CC(C)Nc1nc(N)nc(Cl)n1 [desethylatrazine]
[1]
  lower detection limit (ng/l): 9,500 ng/l
  cross reaction (%): < 0.3%
[2]
  lower detection limit: 90 ng/L
  cross reaction (%): 7%

## CC(C)Nc1nc(Cl)nc(NC(C)C)n1 [propazine]
[1]
  lower detection limit: 620 ng/L
  cross reaction (%): 8%
[2]
  lower detection limit: 24 ng/L
  cross reaction (%): 26%

## CCNc1nc(Cl)nc(NC(C)(C)C#N)n1 [cyanazine]
[1]
  lower detection limit: 310 ng/L
  cross reaction (%): 11%
[2]
  lower detection limit: 10 ng/L
  cross reaction (%): 102%

## CCNc1nc(Cl)nc(NC(C)(C)C)n1 [terbutylazine]
[1]
  lower detection limit: 100 ng/L
  cross reaction (%): 100%
[2]
  lower detection limit: 12 ng/L
  cross reaction (%): 100%

## CC(C)(C)Nc1nc(N)nc(Cl)n1 [desethylterbutylazine]
[1]
  lower detection limit: 430 ng/L
  cross reaction (%): 9%
[2]
  lower detection limit: 10 ng/L
  cross reaction (%): 102%

## CCNc1nc(Cl)nc(NCC)n1 [simazine]
[1]
  lower detection limit: 4.100 ng/L
  cross reaction (%): 0.9%
[2]
  lower detection limit: 60 ng/L
  cross reaction (%): 10%
